From the supplement of paper PMC13207355

Tests used:
Conditions in all cases: exposure time: 72 h
E57 [1] = patient-derived glioblastoma stem cells of mesenchymal subtype; assay: phenotypic distance (Euclidean, principal components) from DMSO controls (arbitrary units); higher = stronger morphological change
FT3469 [2] = normal neural stem cell line; assay: as above
E13 [3] = patient-derived glioblastoma stem cells of classical subtype; assay: as above
E28 [4] = patient-derived glioblastoma stem cells of classical subtype; assay: as above
E31 [5] = patient-derived glioblastoma stem cells of proneural subtype; assay: as above
E34 [6] = patient-derived glioblastoma stem cells of proneural subtype; assay: as above
E21 [7] = patient-derived glioblastoma stem cells of mesenchymal subtype; assay: as above
E57 [8] = assay: surviving fraction (nuclei count normalised to DMSO); higher = more cells surviving (less toxic)
FT3469 [9] = assay: as above
E13 [10] = assay: as above
E28 [11] = assay: as above
E31 [12] = assay: as above
E34 [13] = assay: as above
E21 [14] = assay: as above
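Throughout, for phenotypic distance (Euclidean, principal components) from DMSO controls: cell Painting imaging in 384-well plates, CellProfiler features reduced to at least 20 principal components, Euclidean distance versus same-plate DMSO vehicle wells (0.1% v/v), median over six images per well.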
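Throughout, for surviving fraction (nuclei count normalised to DMSO): nuclei counted by high-content imaging of Hoechst-stained cells in laminin-coated 384-well plates, relative to 0.1% DMSO vehicle wells, with staurosporine as cell-death control.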

COC(=O)Nc1nc2cc(Sc3ccccc3)ccc2[nH]1 [Fenbendazole]
Conditions | phenotypic distance | surviving fraction
E13 [3], 4.1 nM | 0.824 | –
E13 [3], 12.3 nM | 0.763 | –
E13 [3], 37 nM | 0.771 | –
E13 [3], 111.1 nM | 1.88 | –
E13 [3], 333.3 nM | 3.45 | –
E13 [3], 1000 nM | 6.64 | –
E13 [3], 3000 nM | 6.13 | –
E13 [10], 4.1 nM | – | 1.02
E13 [10], 12.3 nM | – | 1.07
E13 [10], 37 nM | – | 1.05
E13 [10], 111.1 nM | – | 0.86
E13 [10], 333.3 nM | – | 0.548
E13 [10], 1000 nM | – | 0.179
E13 [10], 3000 nM | – | 0.236
E21 [7], 4.1 nM | 0.689 | –
E21 [7], 12.3 nM | 0.58 | –
E21 [7], 37 nM | 1.03 | –
E21 [7], 111.1 nM | 1.63 | –
E21 [7], 333.3 nM | 2.19 | –
E21 [7], 1000 nM | 7.35 | –
E21 [7], 3000 nM | 5.94 | –
E21 [14], 4.1 nM | – | 1.07
E21 [14], 12.3 nM | – | 1.02
E21 [14], 37 nM | – | 0.982
E21 [14], 111.1 nM | – | 0.874
E21 [14], 333.3 nM | – | 0.941
E21 [14], 1000 nM | – | 0.105
E21 [14], 3000 nM | – | 0.122
E28 [4], 4.1 nM | 0.869 | –
E28 [4], 12.3 nM | 0.342 | –
E28 [4], 37 nM | 0.965 | –
E28 [4], 111.1 nM | 1.03 | –
E28 [4], 333.3 nM | 1.48 | –
E28 [4], 1000 nM | 3.39 | –
E28 [4], 3000 nM | 3.63 | –
E28 [11], 4.1 nM | – | 1
E28 [11], 12.3 nM | – | 1.09
E28 [11], 37 nM | – | 1.1
E28 [11], 111.1 nM | – | 0.927
E28 [11], 333.3 nM | – | 1.07
E28 [11], 1000 nM | – | 0.359
E28 [11], 3000 nM | – | 0.304
E31 [5], 4.1 nM | 0.332 | –
E31 [5], 12.3 nM | 0.747 | –
E31 [5], 37 nM | 0.989 | –
E31 [5], 111.1 nM | 1.13 | –
E31 [5], 333.3 nM | 1.96 | –
E31 [5], 1000 nM | 6.33 | –
E31 [5], 3000 nM | 5.86 | –
E31 [12], 4.1 nM | – | 1.12
E31 [12], 12.3 nM | – | 0.906
E31 [12], 37 nM | – | 0.836
E31 [12], 111.1 nM | – | 0.749
E31 [12], 333.3 nM | – | 0.526
E31 [12], 1000 nM | – | 0.0787
E31 [12], 3000 nM | – | 0.0818
E34 [6], 4.1 nM | 0.744 | –
E34 [6], 12.3 nM | 0.832 | –
E34 [6], 37 nM | 0.751 | –
E34 [6], 111.1 nM | 0.935 | –
E34 [6], 333.3 nM | 1.56 | –
E34 [6], 1000 nM | 4.45 | –
E34 [6], 3000 nM | 5.29 | –
E34 [13], 4.1 nM | – | 1.06
E34 [13], 12.3 nM | – | 0.988
E34 [13], 37 nM | – | 0.935
E34 [13], 111.1 nM | – | 1.01
E34 [13], 333.3 nM | – | 0.795
E34 [13], 1000 nM | – | 0.361
E34 [13], 3000 nM | – | 0.349
E57 [1], 4.1 nM | 0.515 | –
E57 [1], 12.3 nM | 0.484 | –
E57 [1], 37 nM | 1.23 | –
E57 [1], 111.1 nM | 1.6 | –
E57 [1], 333.3 nM | 2.13 | –
E57 [1], 1000 nM | 4.89 | –
E57 [1], 3000 nM | 4.66 | –
E57 [8], 4.1 nM | – | 1
E57 [8], 12.3 nM | – | 1.05
E57 [8], 37 nM | – | 1.06
E57 [8], 111.1 nM | – | 0.964
E57 [8], 333.3 nM | – | 0.841
E57 [8], 1000 nM | – | 0.0618
E57 [8], 3000 nM | – | 0.0799
FT3469 [2], 4.1 nM | 0.898 | –
FT3469 [2], 12.3 nM | 0.598 | –
FT3469 [2], 37 nM | 0.489 | –
FT3469 [2], 111.1 nM | 1.42 | –
FT3469 [2], 333.3 nM | 1.54 | –
FT3469 [2], 1000 nM | 2.9 | –
FT3469 [2], 3000 nM | 2.71 | –
FT3469 [9], 4.1 nM | – | 1.03
FT3469 [9], 12.3 nM | – | 1.1
FT3469 [9], 37 nM | – | 0.864
FT3469 [9], 111.1 nM | – | 1.02
FT3469 [9], 333.3 nM | – | 0.864
FT3469 [9], 1000 nM | – | 0.511
FT3469 [9], 3000 nM | – | 0.622
